Measurements taken from PubChem BioAssay (NCI).
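Here, GI50 denotes the concentration required for 50% inhibition of growth. Definition used: TGI = concentration required for complete inhibition of growth.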

What was measured:
Experiment in all cases: NCI tumour cell line growth inhibition, 384-well format
786-0 renal = test system: 786-0 renal
A498 renal = test system: A498 renal
A549 NSCLC = test system: A549 NSCLC
ACHN renal = test system: ACHN renal
BT-549 breast = test system: BT-549 breast
CAKI-1 renal = test system: CAKI-1 renal
COLO 205 colon = test system: COLO 205 colon
DU-145 prostate = test system: DU-145 prostate
EKVX NSCLC = test system: EKVX NSCLC
HCT-116 colon = test system: HCT-116 colon
HCT-15 colon = test system: HCT-15 colon
HL-60(TB) leukemia = test system: HL-60(TB) leukemia
HOP-62 NSCLC = test system: HOP-62 NSCLC
HOP-92 NSCLC = test system: HOP-92 NSCLC
HS 578T breast = test system: HS 578T breast
HT29 colon = test system: HT29 colon
IGROV1 ovarian = test system: IGROV1 ovarian
K-562 leukemia = test system: K-562 leukemia
KM12 colon = test system: KM12 colon
M14 melanoma = test system: M14 melanoma
MALME-3M melanoma = test system: MALME-3M melanoma
MCF7 breast = test system: MCF7 breast
MDA-MB-231 breast = test system: MDA-MB-231 breast
MDA-MB-435 melanoma = test system: MDA-MB-435 melanoma
MDA-MB-468 breast = test system: MDA-MB-468 breast
MOLT-4 leukemia = test system: MOLT-4 leukemia
NCI-H226 lung = test system: NCI-H226 lung
NCI-H23 lung = test system: NCI-H23 lung
NCI-H322M lung = test system: NCI-H322M lung
NCI-H522 lung = test system: NCI-H522 lung
OVCAR-3 ovarian = test system: OVCAR-3 ovarian
OVCAR-4 ovarian = test system: OVCAR-4 ovarian
OVCAR-5 ovarian = test system: OVCAR-5 ovarian
OVCAR-8 ovarian = test system: OVCAR-8 ovarian
PC-3 prostate = test system: PC-3 prostate
SF-268 CNS = test system: SF-268 CNS
SF-295 CNS = test system: SF-295 CNS
SF-539 CNS = test system: SF-539 CNS
SK-MEL-2 melanoma = test system: SK-MEL-2 melanoma
SK-MEL-28 melanoma = test system: SK-MEL-28 melanoma
SK-MEL-5 melanoma = test system: SK-MEL-5 melanoma
SK-OV-3 ovarian = test system: SK-OV-3 ovarian
SN12C renal = test system: SN12C renal
SNB-19 CNS = test system: SNB-19 CNS
SNB-75 CNS = test system: SNB-75 CNS
SR leukemia = test system: SR leukemia
SW-620 colon = test system: SW-620 colon
T-47D breast = test system: T-47D breast
TK-10 renal = test system: TK-10 renal
U251 glioblastoma = test system: U251 glioblastoma
UACC-257 melanoma = test system: UACC-257 melanoma
UACC-62 melanoma = test system: UACC-62 melanoma
UO-31 renal = test system: UO-31 renal

Molecule `CNC(=O)c1cc2c(Oc3ccc(NC(=O)C4(C(=O)Nc5ccc(F)cc5)CC4)cc3)ccnc2cc1OC` has a GI50 ([…]-0 renal) of 3.09 µM, a TGI (786-0 renal) of 12.5 µM and a GI50 (A498 renal) of 2.87 µM. The TGI (A498 renal) was 9.79 µM, the GI50 (A549 NSCLC) was 3.1 µM and the TGI (A549 NSCLC) was 11.2 µM. It also gave a GI50 (ACHN renal) of 1.67 µM, a TGI (ACHN renal) of 5.7 µM and a GI50 (BT-549 breast) of 2.49 µM. For the same molecule, the TGI (BT-549 breast) was 6.88 µM, the GI50 (CAKI-1 renal) was 1.61 µM and the TGI (CAKI-1 renal) was 3.42 µM. It also gave a GI50 (COLO 205 colon) of 3.38 µM, a TGI (COLO 205 colon) of 14.4 µM and a GI50 (DU-145 prostate) of 4.12 µM. It also gave a TGI (DU-145 prostate) of over 100 µM, a GI50 (EKVX NSCLC) of 1.68 µM and a TGI (EKVX NSCLC) of 5.23 µM. The GI50 (HCT-116 colon) was 3.17 µM, the TGI (HCT-116 colon) was 19.9 µM and the GI50 (HCT-15 colon) was 2.96 µM. The TGI (HCT-15 colon) was 12.3 µM, the GI50 (HL-60(TB) leukemia) was 2.13 µM and the TGI (HL-60(TB) leukemia) was 4.05 µM. For the same molecule, the GI50 (HOP-62 NSCLC) was 3.47 µM, the TGI (HOP-62 NSCLC) was 24.3 µM and the GI50 (HOP-92 NSCLC) was 1.37 µM. It also gave a TGI (HOP-92 NSCLC) of 5.99 µM, a GI50 (HS 578T breast) of 0.601 µM and a TGI (HS 578T breast) of 2.73 µM. It also gave a GI50 (HT29 colon) of 2.96 µM, a TGI (HT29 colon) of 13.3 µM and a GI50 (IGROV1 ovarian) of 1.48 µM. It also gave a TGI (IGROV1 ovarian) of 3.41 µM, a GI50 (K-562 leukemia) of 0.261 µM and a TGI (K-562 leukemia) of 1.29 µM. The GI50 (KM12 colon) was 4.09 µM, the TGI (KM12 colon) was 74.6 µM and the GI50 (M14 melanoma) was 3.36 µM. For the same molecule, the TGI (M14 melanoma) was 31.5 µM, the GI50 (MALME-3M melanoma) was 3.5 µM and the TGI (MALME-3M melanoma) was 17.1 µM. For the same molecule, the GI50 (MCF7 breast) was 1.72 µM, the TGI (MCF7 breast) was 10.4 µM and the GI50 (MDA-MB-231 breast) was 3.33 µM. It also gave a TGI (MDA-MB-231 breast) of over 100 µM, a GI50 (MDA-MB-435 melanoma) of 1.63 µM and a TGI (MDA-MB-435 melanoma) of 3.47 µM. The GI50 (MDA-MB-468 breast) was 1.57 µM, the TGI (MDA-MB-468 breast) was 4.59 µM and the GI50 (MOLT-4 leukemia) was 1.4 µM. It also gave a TGI (MOLT-4 leukemia) of 2.72 µM, a GI50 (NCI-H226 lung) of 1.63 µM and a TGI (NCI-H226 lung) of 6.07 µM. It also gave a GI50 (NCI-H23 lung) of 0.546 µM, a TGI (NCI-H23 lung) of 4.73 µM and a GI50 (NCI-H322M lung) of 2.64 µM. It also gave a TGI (NCI-H322M lung) of 8.79 µM, a GI50 (NCI-H522 lung) of 1.96 µM and a TGI (NCI-H522 lung) of 5.53 µM. It also gave a GI50 (OVCAR-3 ovarian) of 2.56 µM, a TGI (OVCAR-3 ovarian) of 12.4 µM and a GI50 (OVCAR-4 ovarian) of 3.87 µM. The TGI (OVCAR-4 ovarian) was over 100 µM, the GI50 (OVCAR-5 ovarian) was 3.35 µM and the TGI (OVCAR-5 ovarian) was over 100 µM. For the same molecule, the GI50 (OVCAR-8 ovarian) was 3.59 µM, the TGI (OVCAR-8 ovarian) was over 100 µM and the GI50 (PC-3 prostate) was 3.94 µM. For the same molecule, the TGI (PC-3 prostate) was over 100 µM, the GI50 (SF-268 CNS) was 3.72 µM and the TGI (SF-268 CNS) was over 100 µM. It also gave a GI50 (SF-295 CNS) of 0.471 µM, a TGI (SF-295 CNS) of 8.18 µM and a GI50 (SF-539 CNS) of 0.18 µM. The TGI (SF-539 CNS) was 3.23 µM, the GI50 (SK-MEL-2 melanoma) was 2.19 µM and the TGI (SK-MEL-2 melanoma) was 5.67 µM. The GI50 (SK-MEL-28 melanoma) was 2.9 µM, the TGI (SK-MEL-28 melanoma) was over 100 µM and the GI50 (SK-MEL-5 melanoma) was 1.43 µM. For the same molecule, the TGI (SK-MEL-5 melanoma) was 4.45 µM, the GI50 (SK-OV-3 ovarian) was 1.83 µM and the TGI (SK-OV-3 ovarian) was 5.63 µM. It also gave a GI50 (SN12C renal) of 0.507 µM, a TGI (SN12C renal) of 8.21 µM and a GI50 (SNB-19 CNS) of 16.2 µM. For the same molecule, the TGI (SNB-19 CNS) was over 100 µM, the GI50 (SNB-75 CNS) was 1.08 µM and the TGI (SNB-75 CNS) was 3.01 µM. The GI50 (SR leukemia) was 1.64 µM, the TGI (SR leukemia) was 3.08 µM and the GI50 (SW-620 colon) was 2.72 µM. It also gave a TGI (SW-620 colon) of 10.4 µM, a GI50 (T-47D breast) of 1.81 µM and a TGI (T-47D breast) of 9.37 µM. It also gave a GI50 (TK-10 renal) of 2.85 µM, a TGI (TK-10 renal) of 14.1 µM and a GI50 (U251 glioblastoma) of 4.56 µM. For the same molecule, the TGI (U251 glioblastoma) was over 100 µM, the GI50 (UACC-257 melanoma) was 2.35 µM and the TGI (UACC-257 melanoma) was 20.5 µM. For the same molecule, the GI50 (UACC-62 melanoma) was 1.86 µM, the TGI (UACC-62 melanoma) was 5.52 µM and the GI50 (UO-31 renal) was 1.99 µM. The TGI (UO-31 renal) was 4.9 µM.
